# Test results published in US12715858B2, “Pyridazinone compounds” (INVENTISBIO CO., LTD., priority 2020, dated 2026).
# Read-outs that look alike come from different tables or passages of the source.
# Legend:
# Assay type in all cases: physicochemical
# [1] = Slurry study of Form II at 50° C.; details: MeOH, ACN, acetone, EA and water at 50° C., after 1 day
# Description: In addition, slurry study of Form II was performed in MeOH, ACN, acetone, EA and water at 50° C., respectively.
# [2] = Solid state stability at 60° C. and 40° C./75% RH for 7 days (HPLC purity, XRPD); details: for Purity at Day 7 (Area %) 40° C./75% RH: 7 days at 40° C./75% RH; for Purity at Day 7 (Area %) 40° C./75% RH / Purity at Day 7 (Area %) 60° C.: HPLC; for Purity at Day 7 (Area %) 60° C.: 7 days at 60° C.; for XRPD 40° C./75% RH: crystal form after 7 days at 40° C./75% RH; for XRPD 60° C.: crystal form after 7 days at 60° C.; for Initial Purity (Area %): day 0, HPLC
# Description: HPLC analysis was performed with an Agilent HPLC 1260 series instrument.
# Appropriate amount of free acid Form I, potassium salts Form 1 and Form 2, and sodium salt Form A were placed at 60° C. and 40° C./75% RH for 7 days. At 0 and 7 days, the samples were dissolved in diluent to prepare a solution of 0.5 mg/mL for HPLC purity analysis. Solid samples were analyzed by XRPD to check the crystal form.
# [3] = Solubility in water and bio-relevant media at 37° C. (HPLC of filtrate, pH of filtrate, XRPD of filter cake); details: for solubility at 24 h / solubility at 0.5 h / solubility at 2 h: thermodynamic from solid; for solubility at 24 h / Solubility (mg/mL) 0.5 h / Solubility (mg/mL) 2 h / Solubility (mg/mL) 24 h / solubility at 0.5 h / solubility at 2 h: 37° C.; for solubility at 24 h: read-out: Solubility (mg/mL) 24 h; for XRPD: filter cake obtained at 2 or 24 hours; for PH 0.5 h / PH 2 h / PH 24 h: pH of the filtrate; for solubility at 0.5 h: read-out: Solubility (mg/mL) 0.5 h; for solubility at 2 h: read-out: Solubility (mg/mL) 2 h
# Description: Solubility of Form I of free acid, Form 1 and Form 2 of potassium salt, and Form A of sodium salt were tested in water and in bio-relevant media of Simulated Intestinal Fluid (SIF), Simulated Gastric Fluid (SGF), Fasted State Simulated Intestinal Fluid (FaSSIF), and Fed State Simulated Intestinal Fluid (FeSSIF) at 37° C. up to 24 hours. About 12 mg of the sample was weighed into sample vials and then 1.5 mL of each media was added to make suspensions respectively. All suspensions were shaken at 37° C. with 200 rpm.
# [4] = Dynamic Vapor Sorption (DVS); details: for hygroscopicity: DVS; for crystal form of solid after the DVS study: XRPD after DVS; for water uptake / weight gain by DVS: at 80% RH (Form I: 0 to 80% RH), 25° C.
# Description: Dynamic Vapor Sorption (DVS): Moisture sorption/desorption data was collected on a IGASorp DVS. The sample was placed into a tarred sample chamber and weighed automatically. The sample was dried at 50° C. until the % RH was less than 0.3% and cooled to 25° C. Set the instrument parameters as below.
# [5] = Physical stability upon grinding and high humidity; details: for crystal form (XRPD) after grinding / crystallinity after grinding: ground manually, up to 5 min
# Description: Physical stability of Form I was evaluated upon grinding and high humidity (RT/92.5% RH for 24 days). For mechanical treatment study, Form I (10 mg) was ground manually for 5 min, and the sample was analyzed by XRPD after grinding for 2 and 5 min, respectively.
# [6] = Water activity study of potassium salt Form 1 in MeOH/water; details: for Result (XRPD form): 24 h
# Description: Form 1 was further tested to determine the influence of water on the crystalline form. Thus, 15 mg of potassium salt Form 1 was added into 0.3 mL of MeOH/water (with various amounts of water), and then the suspension was kept stirring at 25° C. for 24 h. The solid was collected by filtration and characterized by XRPD.
# [7] = Interconversion study of potassium salt Form 1 and Form 2 (slurry of equal amounts); details: slurry in MeOH/EA and acetone/water, RT or 50° C.
# Description: Interconversion study were performed in MeOH/EA (1/9, RT or 50° C.) and acetone/water (20/1, RT or 50° C.). Equal amounts of Form 1 and Form 2 were slurried in specified solvents at different temperatures for certain time.
# [8] = FeSSIF (Fed State Simulated Intestinal Fluid), 37 °C, fessif, FeSSIF
# [9] = water, 37 °C, water, Water, LOQ is 0.5 μg/mL
compound,measurement,setting,value
Cc1nn(-c2cc(Cl)c(Oc3cc(C(C)C)c(=O)[nH]n3)c(Cl)c2)c(=O)[nH]c1=O [Form II],form conversion in slurry,[1],completely converted to Form I
"Cc1nn(-c2cc(Cl)c(Oc3cc(C(C)C)c(=O)[nH]n3)c(Cl)c2)c(=O)[nH]c1=O [Free acid Form I, 2-(3,5-dichloro-4-((5-isopropyl-6-oxo-1,6-dihydropyridazin-3-yl)oxy)phenyl)-6-methyl-1,2,4-triazine-3,5(2H,4H)-dione]",Purity at Day 7 (Area %) 40° C./75% RH,[2],96.42 Area %
same,Purity at Day 7 (Area %) 60° C.,[2],96.47 Area %
same,XRPD 40° C./75% RH,[2],Unchanged
same,XRPD 60° C.,[2],Unchanged
same,Initial Purity (Area %),[2],96.45 Area %
same,solubility at 24 h,"[3]; FaSSIF (Fasted State Simulated Intestinal Fluid), FaSSIF",0.00052 mg/mL
same,Solubility (mg/mL) 0.5 h,"[3]; FaSSIF, LOQ is 0.5 μg/mL",<LOQ
same,Solubility (mg/mL) 2 h,"[3]; FaSSIF, LOQ is 0.5 μg/mL",<LOQ
same,Solubility (mg/mL) 0.5 h,"[3]; SGF, LOQ is 0.5 μg/mL",<LOQ
same,Solubility (mg/mL) 2 h,"[3]; SGF, LOQ is 0.5 μg/mL",<LOQ
same,Solubility (mg/mL) 24 h,"[3]; SGF, LOQ is 0.5 μg/mL",<LOQ
same,Solubility (mg/mL) 0.5 h,"[3]; SIF, LOQ is 0.5 μg/mL",<LOQ
same,Solubility (mg/mL) 2 h,"[3]; SIF, LOQ is 0.5 μg/mL",<LOQ
same,Solubility (mg/mL) 24 h,"[3]; SIF, LOQ is 0.5 μg/mL",<LOQ
same,Solubility (mg/mL) 0.5 h,"[3]; Water, LOQ is 0.5 μg/mL",<LOQ
same,Solubility (mg/mL) 2 h,"[3]; Water, LOQ is 0.5 μg/mL",<LOQ
same,Solubility (mg/mL) 24 h,"[3]; Water, LOQ is 0.5 μg/mL",<LOQ
same,XRPD,[3]; FaSSIF,unchanged
same,XRPD,[3]; SGF,unchanged
same,XRPD,[3]; SIF,unchanged
same,XRPD,[3]; Water,unchanged
same,PH 0.5 h,[3]; FaSSIF,6.72
same,PH 2 h,[3]; FaSSIF,6.60
same,PH 24 h,[3]; FaSSIF,6.74
same,PH 0.5 h,[3]; FeSSIF,4.91
same,PH 2 h,[3]; FeSSIF,4.86
same,PH 24 h,[3]; FeSSIF,5.00
same,PH 0.5 h,[3]; SGF,1.17
same,PH 2 h,[3]; SGF,1.19
same,PH 24 h,[3]; SGF,1.16
same,PH 0.5 h,[3]; SIF,6.89
same,PH 2 h,[3]; SIF,6.86
same,PH 24 h,[3]; SIF,6.79
same,PH 0.5 h,[3]; Water,6.48
same,PH 2 h,[3]; Water,6.59
same,PH 24 h,[3]; Water,6.44
same,solubility at 0.5 h,[3]; FeSSIF,0.00056 mg/mL
same,solubility at 2 h,[3]; FeSSIF,0.001 mg/mL
same,solubility at 24 h,[3]; FeSSIF,0.0011 mg/mL
same,hygroscopicity,[4],slightly hygroscopic
same,crystal form of solid after the DVS study,[4],remained unchanged
same,water uptake / weight gain by DVS,[4],0.9%
same,form change upon high humidity,[5]; RT/92.5% RH for 24 days,no form change was observed
same,crystal form (XRPD) after grinding,[5],remained unchanged
same,crystallinity after grinding,[5],significantly decreased
Cc1nn(-c2cc(Cl)c(Oc3cc(C(C)C)c(=O)[nH]n3)c(Cl)c2)c(=O)[n-]c1=O.[K+] [Potassium salt Form 1],chemical and physical stability,[2]; 40° C./75% RH and 60° C. for 7 days,chemically and physically stable
same,Purity at Day 7 (Area %) 40° C./75% RH,[2],99.29 Area %
same,Purity at Day 7 (Area %) 60° C.,[2],99.50 Area %
same,XRPD 40° C./75% RH,[2],Unchanged
same,XRPD 60° C.,[2],Unchanged
same,Initial Purity (Area %),[2],99.23 Area %
same,solubility at 2 h,"[3]; FaSSIF (Fasted State Simulated Intestinal Fluid), 37 °C, fassif, FaSSIF, LOQ is 0.5 μg/mL",0.013 mg/mL
same,solubility at 24 h,"[3]; FaSSIF (Fasted State Simulated Intestinal Fluid), 37 °C, fassif, FaSSIF",0.0064 mg/mL
same,Solubility (mg/mL) 0.5 h,"[3]; FaSSIF, LOQ is 0.5 μg/mL",<LOQ
same,solubility at 2 h,[3]; [8],0.0089 mg/mL
same,solubility at 24 h,[3]; [8],0.013 mg/mL
same,Solubility (mg/mL) 0.5 h,[3]; FeSSIF,0.0017 mg/mL
same,Solubility (mg/mL) 0.5 h,"[3]; SGF, LOQ is 0.5 μg/mL",<LOQ
same,Solubility (mg/mL) 2 h,"[3]; SGF, LOQ is 0.5 μg/mL",<LOQ
same,Solubility (mg/mL) 24 h,"[3]; SGF, LOQ is 0.5 μg/mL",<LOQ
same,Solubility (mg/mL) 0.5 h,"[3]; SIF, LOQ is 0.5 μg/mL",<LOQ
same,Solubility (mg/mL) 2 h,"[3]; SIF, LOQ is 0.5 μg/mL",<LOQ
same,Solubility (mg/mL) 24 h,"[3]; SIF, LOQ is 0.5 μg/mL",<LOQ
same,XRPD,[3]; FaSSIF,Free acid
same,XRPD,[3]; FeSSIF,Free acid
same,XRPD,[3]; SGF,Free acid
same,XRPD,[3]; SIF,Free acid
same,XRPD,[3]; Water,Free acid
same,PH 0.5 h,[3]; FaSSIF,7.03
same,PH 2 h,[3]; FaSSIF,7.36
same,PH 24 h,[3]; FaSSIF,8.29
same,PH 0.5 h,[3]; FeSSIF,5.06
same,PH 2 h,[3]; FeSSIF,5.21
same,PH 24 h,[3]; FeSSIF,5.24
same,PH 0.5 h,[3]; SGF,1.18
same,PH 2 h,[3]; SGF,1.26
same,PH 24 h,[3]; SGF,1.25
same,PH 0.5 h,[3]; SIF,7.52
same,PH 2 h,[3]; SIF,7.52
same,PH 24 h,[3]; SIF,7.44
same,PH 0.5 h,[3]; Water,11.02
same,PH 2 h,[3]; Water,11.00
same,PH 24 h,[3]; Water,10.57
same,solubility at 0.5 h,[3]; [9],5.79 mg/mL
same,solubility at 2 h,[3]; [9],5.28 mg/mL
same,solubility at 24 h,[3]; [9],5.15 mg/mL
same,DVS Water % at 80% RH,"[4]; 80% RH, forms of potassium salt of Compound 1",1.8%
same,hygroscopicity,[4],slight hygroscopic
same,crystal form of solid after the DVS study,[4],remained unchanged
same,water uptake / weight gain by DVS,[4],1.8%
same,Result (XRPD form),"[6]; MeOH/water (80/20), Aw 0.3598, 25° C.",Form 1 + 2
same,Result (XRPD form),"[6]; MeOH/water (86/14), Aw 0.2679, 25° C.",Form 1 + 2
same,Result (XRPD form),"[6]; MeOH/water (90/10), Aw 0.1998, 25° C.",Form 1 + 2
same,Result (XRPD form),"[6]; MeOH/water (95/5), Aw 0.1058, 25° C.",Form 2
same,Result (XRPD form),"[6]; MeOH/water (97/3), Aw 0.065, 25° C.",Form 2
same,Result (XRPD form),"[6]; MeOH/water (99/1), Aw 0.021, 25° C.",Form 1 + 2
same,Result (XRPD form),"[6]; MeOH/water (99.5/0.5), Aw 0.010, 25° C.",Form 1
same,Result (XRPD form),"[6]; MeOH/water (100/0), Aw 0, 25° C.",Form 1
same,water activity at which Form 1 has the tendency to convert to Form 2,"[6]; after 24 h, 0.5% of water content",> 0.01
same,crystal form (XRPD) after grinding,[5],remained unchanged
same,crystallinity after grinding,[5],decreased
same,relative stability of Form 1 and Form 2,[7],more stable in non-aqueous system
